Measurements: patent US4062948A, “Dihydromocimycin antibiotics” (Gist-Brocades N.V., priority 1970, dated 1977)
Values after ≈ are worked out from the molar mass of the structure shown.

What was measured:
Test in all cases: micro liquid serial dilution test (Table II)
Assay type in all cases: cell-based
[1] = system: Actinobacillus equuli T 3; settings: T3, 18 hours at 30° C or 37° C, read-out: Minimum inhibitory concentration
Protocol: (§1) The microbiological activity of the antibiotic preparation towards a number of micoorganisms has been determined by a micro liquid serial dilution test:
(§2) A stock solution of the test compounds at a concentration of 200 μg/ml in 0.05 molar phosphate buffer at a pH of 6.5 was prepared and serial 1:1 dilutions were made with a liquid medium inoculated with the test organism, using conventional glass spot-test plates. The plates were incubated 18 hours at 30° C or 37° C. The minimum inhibitory concentration (MIC) which is the smallest concentration of compound completely inhibiting the growth of the test organism is read and calculated in μg/ml.

Aspergilus niger D 184 = settings: 18 hours at 30° C or 37° C; read-out: Minimum inhibitory concentration
Protocol: as §1, §2

[2] = system: Bacillus cereus ATCC 9139; settings: ATCC9139, 18 hours at 30° C or 37° C, read-out: Minimum inhibitory concentration
Protocol: as §1, §2

[3] = system: Candida parapsilosis A 952; settings: Lodderomyces parapsilosis, A952; 18 hours at 30° C or 37° C; read-out: Minimum inhibitory concentration
Protocol: as §1, §2

Escherichia coli M = settings: 18 hours at 30° C or 37° C, read-out: Minimum inhibitory concentration
Protocol: as §1, §2

[4] = system: Escherichia coli NCTC 8196; settings: NCTC8196, 18 hours at 30° C or 37° C, read-out: Minimum inhibitory concentration
Protocol: as §1, §2

Escherichia coli U 20 = settings: U20, 18 hours at 30° C or 37° C, read-out: Minimum inhibitory concentration
Protocol: as §1, §2

[5] = system: Haemophilus influenzae A 773; settings: A773, 18 hours at 30° C or 37° C, read-out: Minimum inhibitory concentration
Protocol: as §1, §2

[6] = system: Lactobacillus acidophilus D 218; settings: D218, 18 hours at 30° C or 37° C, read-out: Minimum inhibitory concentration
Protocol: as §1, §2

Micrococcus flavus A 54 = settings: A54, 18 hours at 30° C or 37° C, read-out: Minimum inhibitory concentration
Protocol: as §1, §2

[7] = system: Mycoplasma gallisepticum K 514
Protocol: as §1, §2

[8] = system: Mycoplasma hyorhinus A 2230; settings: A2230, 18 hours at 30° C or 37° C, read-out: Minimum inhibitory concentration
Protocol: as §1, §2

[9] = system: Mycoplasma synoviae A 2082; settings: Mycoplasmopsis synoviae, A2082; 18 hours at 30° C or 37° C; read-out: Minimum inhibitory concentration
Protocol: as §1, §2

Proteus mirabilis H 3 = settings: H3, 18 hours at 30° C or 37° C, read-out: Minimum inhibitory concentration
Protocol: as §1, §2

Proteus mirabilis L 93 = settings: L93, 18 hours at 30° C or 37° C, read-out: Minimum inhibitory concentration
Protocol: as §1, §2

Proteus rettgeri A 821 = settings: Providencia rettgeri, A821; 18 hours at 30° C or 37° C; read-out: Minimum inhibitory concentration
Protocol: as §1, §2

[10] = system: Saccharomyces cerevisiae D 160; settings: D160, 18 hours at 30° C or 37° C, read-out: Minimum inhibitory concentration
Protocol: as §1, §2

Salmonella dublin P 43 = settings: Salmonella enterica, P43; 18 hours at 30° C or 37° C; read-out: Minimum inhibitory concentration
Protocol: as §1, §2

Sarcina lutea ATCC 9341 = settings: Micrococcus luteus, ATCC9341; 18 hours at 30° C or 37° C; read-out: Minimum inhibitory concentration
Protocol: as §1, §2

[11] = system: Staphylococcus aureus A 321; settings: A321, 18 hours at 30° C or 37° C, read-out: Minimum inhibitory concentration
Protocol: as §1, §2

[12] = system: Staphylococcus aureus A 55 (ATCC 65388); settings: ATCC65388, 18 h, read-out: Minimum inhibitory concentration
Protocol: as §1, §2

[13] = system: Streptococcus agalactiae A 732; settings: A732, 18 hours at 30° C or 37° C, read-out: Minimum inhibitory concentration
Protocol: as §1, §2

[14] = system: Streptococcus disgalactiae A 730; settings: A730, 18 hours at 30° C or 37° C, read-out: Minimum inhibitory concentration
Protocol: as §1, §2

[15] = system: Streptococcus faecalis A 306; settings: Enterococcus faecalis, A306; 18 hours at 30° C or 37° C; read-out: Minimum inhibitory concentration
Protocol: as §1, §2

[16] = system: Streptococcus faecalis L 80; settings: Enterococcus faecalis, L80; 18 hours at 30° C or 37° C; read-out: Minimum inhibitory concentration
Protocol: as §1, §2

[17] = system: Streptococcus haemolyticus A 266; settings: A266, 18 hours at 30° C or 37° C, read-out: Minimum inhibitory concentration
Protocol: as §1, §2

[18] = system: Torulopsis glabrata A 420; settings: Nakaseomyces glabratus, A420; 18 hours at 30° C or 37° C; read-out: Minimum inhibitory concentration
Protocol: as §1, §2

[19] = system: Trichophyton mentagrophytes R 177; settings: R177, 18 hours at 30° C or 37° C, read-out: Minimum inhibitory concentration
Protocol: as §1, §2

Vibrio coli 1846 = settings: Campylobacter coli, 18 hours at 30° C or 37° C, read-out: Minimum inhibitory concentration
Protocol: as §1, §2

CC=CC=CC1OC(O)(C(CC)C(=O)NCC=CC=C(C)C(OC)C(C)C2OC(C=CC=CC=C(C)C(=O)c3c(O)cc[nH]c3=O)C(O)C2O)C(O)C(O)C1(C)C (stereo not drawn) [mocimycin]
MIC [1]: 1.5 µg/mL (≈ 1.88 µM) | MIC (Aspergilus niger D 184): > 100 µg/mL | MIC [2]: 0.3 µg/mL (≈ 0.376 µM) | MIC [3]: > 100 µg/mL | MIC (Escherichia coli M): > 100 µg/mL | MIC [4]: 50 µg/mL (≈ 62.7 µM) | MIC (Escherichia coli U 20): > 100 µg/mL | MIC [5]: 2 µg/mL (≈ 2.51 µM) | MIC [6]: > 100 µg/mL | MIC (Micrococcus flavus A 54): 4 µg/mL (≈ 5.02 µM) | MIC ([7]; Mycoplasmoides gallisepticum, K514, 18 hours at 30° C or 37° C, read-out: Minimum inhibitory concentration): 0.1 µg/mL (≈ 0.125 µM) | activity against Mycoplasma gallisepticum ([7]; in vitro, summary of Table II): high activity | MIC [8]: 3 µg/mL (≈ 3.76 µM) | MIC [9]: 1 µg/mL (≈ 1.25 µM) | MIC (Proteus mirabilis H 3): 50 µg/mL (≈ 62.7 µM) | MIC (Proteus mirabilis L 93): 100 µg/mL (≈ 125 µM) | MIC (Proteus rettgeri A 821): > 100 µg/mL | MIC [10]: > 100 µg/mL | MIC (Salmonella dublin P 43): > 100 µg/mL | MIC (Sarcina lutea ATCC 9341): 25 µg/mL (≈ 31.4 µM) | MIC [11]: 100 µg/mL (≈ 125 µM) | MIC [12]: 100 µg/mL (≈ 125 µM) | MIC [13]: 0.9 µg/mL (≈ 1.13 µM) | MIC [14]: 0.6 µg/mL (≈ 0.753 µM) | MIC [15]: 1 µg/mL (≈ 1.25 µM) | MIC [16]: > 200 µg/mL | MIC [17]: 2 µg/mL (≈ 2.51 µM) | MIC [18]: > 100 µg/mL | MIC [19]: > 100 µg/mL | MIC (Vibrio coli 1846): 100 µg/mL (≈ 125 µM)
